Test results reported in US9464084B2, “P2X7 modulators” (Janssen Pharmaceutica NV, priority 2013, dated 2016).

How the values were obtained:
rat P2X7 = rat P2X7 (Rattus norvegicus (Rat), UniProt Q64663); test: Ca2+ flux (FLIPR) in 1321N1 cells expressing recombinant rat P2X7 channel; assay type: cell-based; conditions: 250 μM BzATP;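 also: Calcium-4 dye fluorescence change read 180 s after agonist addition, following 30 min cell preincubation with test compound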
P2X7 = P2X7 (Homo sapiens (Human), UniProt Q99572); test: P2X7 antagonism in human PBMCs (LPS + Bz-ATP induced IL-1β release, ELISA); assay type: cell-based; conditions: LPS 30 ng/ml, Bz-ATP 0.5 mM; for PBMC 10 μM (% control): compound 10 μM; for PBMC 1 μM (% control): compound 1 μM;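 as to all read-outs here: PBMCs from donor human blood, with a further 1.5 h incubation of the cells in the assay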
P2X7, sequence (Q99572 whole entry): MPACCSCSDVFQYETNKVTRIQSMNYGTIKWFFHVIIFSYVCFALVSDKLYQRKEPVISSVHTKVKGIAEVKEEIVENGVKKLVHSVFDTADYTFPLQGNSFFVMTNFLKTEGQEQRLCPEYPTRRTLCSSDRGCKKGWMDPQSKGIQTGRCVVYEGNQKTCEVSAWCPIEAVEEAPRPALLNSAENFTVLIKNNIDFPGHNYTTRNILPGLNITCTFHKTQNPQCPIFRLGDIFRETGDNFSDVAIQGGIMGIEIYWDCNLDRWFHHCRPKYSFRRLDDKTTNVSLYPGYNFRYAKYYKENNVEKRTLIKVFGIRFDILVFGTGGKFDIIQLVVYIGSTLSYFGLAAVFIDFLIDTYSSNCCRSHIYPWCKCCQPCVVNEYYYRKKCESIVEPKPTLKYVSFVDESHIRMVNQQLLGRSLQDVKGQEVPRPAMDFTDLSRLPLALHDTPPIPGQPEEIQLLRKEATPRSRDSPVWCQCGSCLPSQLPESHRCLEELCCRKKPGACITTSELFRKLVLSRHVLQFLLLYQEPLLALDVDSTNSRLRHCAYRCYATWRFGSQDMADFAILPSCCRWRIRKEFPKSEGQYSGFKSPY

rat P2X7, sequence (Q64663 whole entry): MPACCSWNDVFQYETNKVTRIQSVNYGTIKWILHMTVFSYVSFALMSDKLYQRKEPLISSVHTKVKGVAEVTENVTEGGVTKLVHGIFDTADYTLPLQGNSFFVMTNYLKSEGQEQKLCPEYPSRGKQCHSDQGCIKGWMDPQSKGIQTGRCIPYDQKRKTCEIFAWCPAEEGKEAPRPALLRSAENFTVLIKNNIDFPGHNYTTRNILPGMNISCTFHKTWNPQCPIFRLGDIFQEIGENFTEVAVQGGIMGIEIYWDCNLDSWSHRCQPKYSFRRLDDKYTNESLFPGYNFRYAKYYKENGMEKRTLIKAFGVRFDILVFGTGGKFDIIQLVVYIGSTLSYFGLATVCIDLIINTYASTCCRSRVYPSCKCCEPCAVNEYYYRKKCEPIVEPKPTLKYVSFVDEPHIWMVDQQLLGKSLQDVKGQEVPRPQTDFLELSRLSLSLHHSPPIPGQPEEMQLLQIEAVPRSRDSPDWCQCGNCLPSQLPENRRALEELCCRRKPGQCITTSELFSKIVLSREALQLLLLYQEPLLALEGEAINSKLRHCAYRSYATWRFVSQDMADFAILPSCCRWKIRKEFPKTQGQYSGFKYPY

Structure (SMILES) | IC50 (rat P2X7) | PBMC 10 μM (% control) (P2X7) | PBMC 1 μM (% control) (P2X7)
C[C@H]1Cc2c(nnn2-c2cc(F)ccn2)CN1C(=O)c1cccc(Cl)c1Cl (single isomer, unassigned) [Example 196, (6S*)-5-[(2,3-Dichlorophenyl)carbonyl]-1-(4-fluoropyridin-2-yl)-6-methyl-4,5,6,7-tetrahydro-1H-[1,2,3]triazolo[4,5-c]pyridine] | 2620 nM | −3.1 % control | –
O=C(c1ccc(Cl)cc1Cl)N1CCc2c(nnn2-c2cnccn2)C1 [Example 277, (2,4-dichlorophenyl)(1-(pyrazin-2-yl)-6,7-dihydro-1H-[1,2,3]triazolo[4,5-c]pyridin-5(4H)-yl)methanone] | 1920 nM | −3.7 % control | –
CC1Cc2c(nnn2-c2ccccn2)CN1C(=O)c1cccc(Cl)c1Cl (centres unmarked) [Example 120, 5-[(2,3-Dichlorophenyl)carbonyl]-6-methyl-1-pyridin-2-yl-4,5,6,7-tetrahydro-1H-[1,2,3]triazolo[4,5-c]pyridine] | 55.6 nM | −3.8 % control | –
CCOC(=O)C1c2ncn(-c3ccccc3)c2CCN1C(=O)c1cccc(Cl)c1Cl (centres unmarked) [Example 27, Ethyl 5-(2,3-dichlorobenzoyl)-1-phenyl-4,5,6,7-tetrahydro-1H-imidazo[4,5-c]pyridine-4-carboxylate] | 1890 nM | – | 39.2 % control
C[C@@H]1Cc2c(nnn2-c2cc(F)ccn2)CN1C(=O)c1cccc(Cl)c1Cl (single isomer, unassigned) [Example 195, (6R*)-5-[(2,3-Dichlorophenyl)carbonyl]-1-(4-fluoropyridin-2-yl)-6-methyl-4,5,6,7-tetrahydro-1H-[1,2,3]triazolo[4,5-c]pyridine] | 10.8 nM | 14.4 % control | –
Cc1cc(C)nc(-n2nnc3c2CCN(C(=O)c2cccc(C(F)(F)F)c2Cl)[C@@H]3C)n1 (single isomer, unassigned) [Example 181, (R*)-(2-chloro-3-(trifluoromethyl)phenyl)(1-(4,6-dimethylpyrimidin-2-yl)-4-methyl-6,7-dihydro-1H-[1,2,3]triazolo[4,5-c]pyridin-5(4H)-yl)methanone] | > 10000 nM | −0.1 % control | –
O=C(c1cccc(Cl)c1Cl)N1CCc2c(-c3ccncc3)n[nH]c2C1 [Example 115, 6-[(2,3-Dichlorophenyl)carbonyl]-3-pyridin-4-yl-4,5,6,7-tetrahydro-2H-pyrazolo[3,4-c]pyridine] | > 10000 nM | −3.3 % control | –
Cc1ccnc(-n2nnc3c2CCN(C(=O)c2cccc(C(F)(F)F)c2F)C3C)n1 (centres unmarked) [Example 269, (2-fluoro-3-(trifluoromethyl)phenyl)(4-methyl-1-(4-methylpyrimidin-2-yl)-6,7-dihydro-1H-[1,2,3]triazolo[4,5-c]pyridin-5(4H)-yl)methanone] | 20.6 nM | 16.3 % control | –
Cc1nc(-n2nnc3c2CCN(C(=O)c2cccc(C(F)(F)F)c2Cl)[C@@H]3C)ncc1F (single isomer, unassigned) [Example 305, (R*)-(2-chloro-3-(trifluoromethyl)phenyl)(1-(5-fluoro-4-methylpyrimidin-2-yl)-4-methyl-6,7-dihydro-1H-[1,2,3]triazolo[4,5-c]pyridin-5(4H)-yl)methanone] | 19.7 nM | 0.9 % control | –
CC1c2nnn(-c3ncccc3F)c2CCN1C(=O)c1cccc(C(F)(F)F)c1Cl (centres unmarked) [Example 84, 5-{[2-Chloro-3-(trifluoromethyl)phenyl]carbonyl}-1-(3-fluoropyridin-2-yl)-4-methyl-4,5,6,7-tetrahydro-1H-[1,2,3]triazolo[4,5-c]pyridine] | 187 nM | 8.5 % control | –
O=C(c1cccc(C(F)(F)F)c1Cl)N1CCc2c(nnn2-c2ccccn2)C1 [Example 63, 5-{[2-Chloro-3-(trifluoromethyl)phenyl]carbonyl}-1-pyridin-2-yl-4,5,6,7-tetrahydro-1H-[1,2,3]triazolo[4,5-c]pyridine] | 1090 nM | – | 12.6 % control
Cc1ccc(-n2nnc3c2CCN(C(=O)c2cccc(C(F)(F)F)c2Cl)C3C)nc1 (centres unmarked) [Example 301, (2-chloro-3-(trifluoromethyl)phenyl)(4-methyl-1-(5-methylpyridin-2-yl)-6,7-dihydro-1H-[1,2,3]triazolo[4,5-c]pyridin-5(4H)-yl)methanone] | 163 nM | −2.2 % control | –
CCc1ccnc(-n2nnc3c2CCN(C(=O)c2cccc(C(F)(F)F)c2Cl)[C@@H]3C)n1 (single isomer, unassigned) [Example 294, (R*)-(2-chloro-3-(trifluoromethyl)phenyl)(1-(4-ethylpyrimidin-2-yl)-4-methyl-6,7-dihydro-1H-[1,2,3]triazolo[4,5-c]pyridin-5(4H)-yl)methanone] | 2.8 nM | −8.1 % control | –
CC1c2ncn(-c3ccc(F)cn3)c2CCN1C(=O)c1cccc(C(F)(F)F)c1F (centres unmarked) [Example 262, (2-fluoro-3-(trifluoromethyl)phenyl)(1-(5-fluoropyridin-2-yl)-4-methyl-6,7-dihydro-1H-imidazo[4,5-c]pyridin-5(4H)-yl)methanone] | 1550 nM | −3.6 % control | –
Cc1cc(C)nc(-n2nnc3c2CCN(C(=O)c2cccc(C(F)(F)F)c2Cl)C3C)n1 (centres unmarked) [Example 253, (2-Chloro-3-(trifluoromethyl)phenyl)(1-(4,6-dimethylpyrimidin-2-yl)-4-methyl-6,7-dihydro-1H-[1,2,3]triazolo[4,5-c]pyridin-5(4H)-yl)methanone] | 12700 nM | −2.6 % control | –
C[C@H]1c2ncn(-c3ccccn3)c2CCN1C(=O)c1cccc(Cl)c1Cl (single isomer, unassigned) [Example 191, (S*)-(2,3-Dichlorophenyl)(4-methyl-1-(pyridin-2-yl)-6,7-dihydro-1H-imidazo[4,5-c]pyridin-5(4H)-yl)methanone] | 1300 nM | 5.2 % control | –
CC1CN(C(=O)c2cccc(C(F)(F)F)c2Cl)C(C)c2nnn(-c3ccccc3)c21 (centres unmarked) [Example 241, (2-Chloro-3-(trifluoromethyl)phenyl)(4,7-dimethyl-1-phenyl-6,7-dihydro-1H-[1,2,3]triazolo[4,5-c]pyridin-5(4H)-yl)methanone] | > 10000 nM | 6.5 % control | –
CCOc1cccnc1-n1nnc2c1CCN(C(=O)c1cccc(C(F)(F)F)c1Cl)[C@@H]2C (single isomer, unassigned) [Example 316, (R*)-(2-chloro-3-(trifluoromethyl)phenyl)(1-(3-ethoxypyridin-2-yl)-4-methyl-6,7-dihydro-1H-[1,2,3]triazolo[4,5-c]pyridin-5(4H)-yl)methanone] | 2210 nM | −9.6 % control | –
CCCOc1cccnc1-n1nnc2c1CCN(C(=O)c1cccc(C(F)(F)F)c1Cl)C2C (centres unmarked) [Example 293, (2-chloro-3-(trifluoromethyl)phenyl)(4-methyl-1-(3-propoxypyridin-2-yl)-6,7-dihydro-1H-[1,2,3]triazolo[4,5-c]pyridin-5(4H)-yl)methanone] | 428 nM | −11.3 % control | –
